Test results from paper PMC3138742 (PLoS ONE, 2011).

Key:
[1] = Body weights in FVB-2/N^neu transgenic mouse study; assay type: in vivo; conditions: FVB-2/N^neu mice, oral twice daily for 3 wk
Description: Thirty eight- to forty four-week-old female FVB/N^neu mice were obtained from Shanghai Laboratory Animal Center. The animals were housed under specific pathogen-free conditions.

ErbB2 = ErbB2 (Homo sapiens, UniProt P04626); assay: Rapid dilution irreversibility experiment; assay type: biochemical; parameters: The kinase domain of EGFR, ErbB-2, IGF1R, VEGFR2, FGFR1, PDGFRα, c-Src, c-Met, RON, c-Kit, EphA2 and EphB2 were expressed; made in house; conditions: preincubated 30 min at 100-fold IC50, diluted 100-fold, sampled 180 minutes
ErbB2, sequence (P04626 720-987 limits assumed): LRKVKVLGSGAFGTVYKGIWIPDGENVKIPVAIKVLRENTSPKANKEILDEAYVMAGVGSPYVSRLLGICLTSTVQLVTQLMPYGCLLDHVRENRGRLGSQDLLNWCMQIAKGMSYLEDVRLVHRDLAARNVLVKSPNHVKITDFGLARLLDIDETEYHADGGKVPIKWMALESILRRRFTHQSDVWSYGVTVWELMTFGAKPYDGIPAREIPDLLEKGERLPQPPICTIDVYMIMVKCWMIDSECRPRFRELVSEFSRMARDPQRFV
Description: (§1) The microplate was placed in the EZ Reader (Caliper Life Sciences, MA) and wells were repeatedly sampled for 180 minutes.
(§2) To verify this, we determined the reversibility of EGFR and ErbB2 binding using a dilution method. […] After incubating, the enzyme/inhibitor mixture is diluted 100-fold (i.e., to normal reaction conditions), reaction buffer plus ATP and substrate are added, and receptor kinase activity is measured continuously. In general, a reversible inhibitor dissociates quickly, allowing immediate recovery of enzymatic activity, whereas a slowly reversible inhibitor allows a gradual increase in activity. In contrast, an irreversible inhibitor prevents recovery of enzymatic activity.

EGFR = EGFR (Homo sapiens, UniProt P00533); assay: Rapid dilution irreversibility experiment; assay type: biochemical; parameters: The kinase domain of EGFR, ErbB-2, IGF1R, VEGFR2, FGFR1, PDGFRα, c-Src, c-Met, RON, c-Kit, EphA2 and EphB2 were expressed; made in house; conditions: preincubated 30 min at 100-fold IC50, diluted 100-fold, sampled 180 minutes
EGFR, sequence (P00533 712-979 limits assumed): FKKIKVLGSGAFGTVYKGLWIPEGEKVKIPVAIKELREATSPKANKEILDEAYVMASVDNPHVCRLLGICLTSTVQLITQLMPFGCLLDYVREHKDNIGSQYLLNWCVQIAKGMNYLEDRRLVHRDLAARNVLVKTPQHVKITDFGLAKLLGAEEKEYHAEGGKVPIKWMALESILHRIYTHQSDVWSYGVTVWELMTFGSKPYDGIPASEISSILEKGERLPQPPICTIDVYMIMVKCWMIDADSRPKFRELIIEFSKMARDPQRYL
Description: as §1, §2

EphB2 = EphB2 (Homo sapiens, UniProt P29323); conditions: EphB2, cell-free
EphB2, sequence (P29323 621-884 limits assumed): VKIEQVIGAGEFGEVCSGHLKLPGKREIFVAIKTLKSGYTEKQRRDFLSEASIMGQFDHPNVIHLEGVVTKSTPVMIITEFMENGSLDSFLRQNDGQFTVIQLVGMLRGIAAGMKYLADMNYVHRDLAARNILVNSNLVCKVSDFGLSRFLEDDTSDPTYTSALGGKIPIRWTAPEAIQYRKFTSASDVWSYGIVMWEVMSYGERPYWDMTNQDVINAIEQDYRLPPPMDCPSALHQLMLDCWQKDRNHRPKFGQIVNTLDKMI
Description: (§3) The tyrosine kinase activities were determined using enzyme-linked immunosorbant assay (ELISA). The serine/threonine kinase activities were detected by Caliper Mobility Shift Assay on EZ Reader (Caliper Life Sciences, MA) according to the instruction.
(§4) The kinase domain of EGFR, ErbB-2, IGF1R, VEGFR2, FGFR1, PDGFRα, c-Src, c-Met, RON, c-Kit, EphA2 and EphB2 were expressed using the Bac-to-Bac^TM baculovirus expression system (Invitrogen, Carlsbad, CA, USA) and purified on Ni-NTA columns (QIAGEN Inc., Valencia, CA, USA). VEGFR1, PDGFRβ and c-Abl were purchased from Upstate Biotechnology Inc. (Charlottesville, Virginia, USA). […] EGF was purchased from R&D, Minneapolis, […]. Poly(Glu-Tyr)(4:1), the substrate of tyrosine kinase, was from Sigma-Aldrich Corp. St. Louis, MO, USA.
(§5) The tyrosine kinase activities were determined in 96-well ELISA plates (Corning, NY, USA) precoated with 20 μg/mL Poly (Glu,Tyr)4:1. First, 80 μL of 5 μM ATP solution diluted in kinase reaction buffer (50 mM HEPES pH 7.4, 20 mM MgCl2, 0.1 mM MnCl2, 0.2 mM Na3VO4, 1 mM DTT) was added to each well. […] Subsequently, the kinase reaction was initiated by the addition of purified tyrosine kinase proteins diluted in 10 μL of kinase reaction buffer solution. Experiments at each concentration were performed in duplicate. After incubation for 60 min at 37 °C, the plate was washed three times with phosphate buffered saline (PBS) containing 0.1% Tween 20 (T-PBS). Next, 100 μL anti-phosphotyrosine antibody (PY99, 1:500 dilution) diluted in T-PBS containing 5 mg/mL BSA was added. After 30 min incubation at 37 °C, the plate was washed three times as before. Horseradish peroxidase-conjugated goat anti-mouse IgG (100 μL) diluted 1:2000 in T-PBS containing 5 mg/ml BSA was added. The plate was reincubated at 37 °C for 30 min, and then washed with PBS.

FGFR1 = FGFR1 (Homo sapiens, UniProt P11362); conditions: FGFR1, cell-free
FGFR1, sequence (P11362 478-767 limits assumed): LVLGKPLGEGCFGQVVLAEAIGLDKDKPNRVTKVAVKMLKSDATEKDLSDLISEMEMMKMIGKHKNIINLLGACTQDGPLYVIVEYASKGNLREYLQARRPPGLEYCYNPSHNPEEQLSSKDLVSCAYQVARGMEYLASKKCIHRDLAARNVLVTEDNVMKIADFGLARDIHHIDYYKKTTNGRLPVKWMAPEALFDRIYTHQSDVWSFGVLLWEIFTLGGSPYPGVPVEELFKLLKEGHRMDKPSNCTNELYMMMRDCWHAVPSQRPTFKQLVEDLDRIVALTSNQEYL
Description: as §3, §4, §5

RON = RON (Homo sapiens, UniProt Q04912); conditions: cell-free
RON, sequence (Q04912 1082-1345 limits assumed): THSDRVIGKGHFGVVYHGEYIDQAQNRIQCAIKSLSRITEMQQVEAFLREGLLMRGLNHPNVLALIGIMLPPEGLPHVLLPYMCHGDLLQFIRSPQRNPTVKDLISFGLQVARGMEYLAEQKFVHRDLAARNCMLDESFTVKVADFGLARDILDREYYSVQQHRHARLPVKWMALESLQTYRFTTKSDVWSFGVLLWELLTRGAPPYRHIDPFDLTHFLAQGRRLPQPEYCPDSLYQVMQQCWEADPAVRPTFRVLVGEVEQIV
Description: as §3, §4, §5

c-Kit = c-Kit (Homo sapiens, UniProt P10721); conditions: cell-free
c-Kit, sequence (P10721 589-937 limits assumed): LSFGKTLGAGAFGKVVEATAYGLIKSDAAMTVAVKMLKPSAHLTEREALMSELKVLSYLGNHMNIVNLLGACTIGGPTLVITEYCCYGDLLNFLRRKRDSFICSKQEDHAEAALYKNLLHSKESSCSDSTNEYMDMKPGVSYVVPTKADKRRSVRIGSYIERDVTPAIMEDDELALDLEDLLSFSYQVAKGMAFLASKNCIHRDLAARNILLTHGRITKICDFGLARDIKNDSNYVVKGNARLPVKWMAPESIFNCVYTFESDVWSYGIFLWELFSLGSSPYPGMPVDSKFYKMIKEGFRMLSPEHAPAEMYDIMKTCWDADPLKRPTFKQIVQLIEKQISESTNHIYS
Description: as §3, §4, §5

c-Src = c-Src (Homo sapiens, UniProt P12931); conditions: cell-free
c-Src, sequence (P12931 270-523 limits assumed): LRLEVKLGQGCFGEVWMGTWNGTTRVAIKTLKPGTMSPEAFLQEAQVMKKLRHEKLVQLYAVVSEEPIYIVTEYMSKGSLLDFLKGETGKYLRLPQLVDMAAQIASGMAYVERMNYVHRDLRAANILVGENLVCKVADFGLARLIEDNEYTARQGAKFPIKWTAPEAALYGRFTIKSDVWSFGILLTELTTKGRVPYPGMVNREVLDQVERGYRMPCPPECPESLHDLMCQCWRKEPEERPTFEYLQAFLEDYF
Description: as §3, §4, §5

c-Met = c-Met (Homo sapiens, UniProt P08581); conditions: cell-free
c-Met, sequence (P08581 1078-1345 limits assumed): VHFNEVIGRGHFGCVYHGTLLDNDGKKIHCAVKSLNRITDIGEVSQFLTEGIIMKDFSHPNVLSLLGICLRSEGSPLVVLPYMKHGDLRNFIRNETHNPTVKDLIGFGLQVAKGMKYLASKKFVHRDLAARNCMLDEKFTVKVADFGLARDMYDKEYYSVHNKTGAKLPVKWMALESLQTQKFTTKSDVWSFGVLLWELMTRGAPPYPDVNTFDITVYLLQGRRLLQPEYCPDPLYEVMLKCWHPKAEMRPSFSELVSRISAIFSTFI
Description: as §3, §4, §5

[2] = system: phosphorylation of EGFR and downstream pathways in NCI-H1975 cells; assay: Western blot of EGF-induced phosphorylation; assay type: cell-based, human
Description: as §3
(§6) Cell viability was determined using sulforhodamine B assay. IC50 values were determined based on the results of three independent experiments. […] Whole-cell lysates were assayed for total EGFR and phosphorylation of EGFR by immunoblotting. […] Cell viability was determined using sulforhodamine B assay.

[3] = Pharmacokinetics after single oral dose; conditions: dog, in vivo; dogs, single oral dose 90 mg/kg; unpublished data
NCI-H1975 cells = assay: Cell proliferation SRB assay; assay type: cell-based, human; conditions: NCI-H1975 cells (EGFR T790M/L858R)
Description: as §6, with “immunoblotting. A representative anti-GAPDH immunoblot is shown as a loading control.” for “immunoblotting.”
Cell proliferation was evaluated using the SRB (Sulforhodamine B) assay as previously described. Briefly, cells were seeded into 96-well plates and grown for 24 h. […] The medium remained unchanged until the completion of the experiment. The cells were then fixed with 10% precooled trichloroacetic acid (TCA) for 1 h at 4°C and stained for 15 min at room temperature with 100 μL of 4 mg/mL SRB solution (Sigma) in 1% acetic acid. The SRB was then removed, and the cells were quickly rinsed five times with 1% acetic acid. After cells were air-dried, protein-bound dye was dissolved in 150 μL of 10 mmol/L Tris base for 5 min and measured at 515 nm using a multiwell spectrophotometer (VERSAmax, Molecular Devices). […] The IC50 value was obtained by the Logit method and was determined from the results of at least 3 independent tests.

[4] = Pharmacokinetics after single oral dose; conditions: rat, in vivo; rats, single oral dose 90 mg/kg; unpublished data

## C=CC(=O)Nc1ccc2ncnc(Nc3ccc(OCc4cccc(F)c4)c(Cl)c3)c2c1 [AST1306]
[1]
  decrease of body weights during treatment: less than 20%
ErbB2
  recovery of ErbB2 enzymatic activity after dilution: virtually no EGFR or ErbB2 activity was recovered
EGFR
  recovery of EGFR enzymatic activity after dilution: virtually no EGFR or ErbB2 activity was recovered
EphB2
  IC50: > 10 µM
FGFR1
  IC50: > 10 µM
RON
  IC50: > 10 µM
c-Kit
  IC50: > 10 µM
c-Src
  IC50: > 10 µM
c-Met
  IC50: > 10 µM
[2]
  inhibition of phosphorylation of EGFR and downstream pathways: blocked phosphorylation of EGFR and downstream pathways
[3]
  half-life: < 2.3 h
NCI-H1975 cells
  inhibition of cell growth: inhibited the growth
[4]
  half-life: < 3.6 h
